We go through 13 compounds from ChEMBL document CHEMBL1201862, “PubChem BioAssay data set” (2004).

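Growth conditions: 96-well plates. Treatment: test compound, 48 hours, 5 concentrations. Analysis: linear interpolation between bracketing concentrations; unreached endpoints set to highest concentration. GI50 is the concentration that inhibits growth by half.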 Active and inactive are the calls of the source. No stated cut-off is given here; in the data, active = GI50 up to about 1.1 µM and inactive = higher.

Some test systems named below: NCI-H522; KM12; OVCAR-3; HL-60; HCC 2998; RPMI-8226; Malme-3M; SR; CCRF-CEM; A549; SK-MEL-2; U-251; ACHN; UO-31; NCI-H23; IGROV-1; TK-10; A498.
Test in all cases: NCI tumour cell line growth inhibition, 48 h

Regarding `CCN(CC)CCn1c(=O)c2ccccc2n2c3c(=O)n(C)c(=O)n(C)c3nc12`, the GI50 in the assay on NCI-H522 is 2.43 µM (inactive); in the assay on KM12, 1.77 µM (inactive); with OVCAR-3 it was 4.06 µM (inactive); with HL-60 it was 0.255 µM (active); in the assay with HCC 2998, 1.93 µM (inactive); in the assay on RPMI-8226, 1.6 µM (inactive). Besides, the GI50 was 2.07 µM (inactive) in the assay with Malme-3M; 0.177 µM (active) in the assay with SR; 0.547 µM (active) in the assay with CCRF-CEM; 0.321 µM (active) with A549; 2.82 µM (inactive) in the assay with SK-MEL-2; 1.43 µM (inactive) with U-251. The GI50 with ACHN was 0.25 µM (active); with UO-31, 2.11 µM (inactive); in the assay on NCI-H23 it was 2.07 µM (inactive); in the assay on IGROV-1, 2.11 µM (inactive); with TK-10 it was 19.6 µM (inactive).
On to `COc1ccc(C2c3cc4c(cc3OC(N3CCCCC3)C2C)OCO4)cc1` (configuration not stated), for which the GI50 is 83.6 µM (inactive) with NCI-H522; > 100 µM (inactive) in the assay on KM12; > 100 µM (inactive) in the assay with OVCAR-3; > 100 µM (inactive) with RPMI-8226; > 100 µM (inactive) in the assay on SR; > 100 µM (inactive) in the assay on CCRF-CEM. Moreover, the GI50 was 85.1 µM (inactive) with A549; > 100 µM (inactive) in the assay on SK-MEL-2; 41.2 µM (inactive) with ACHN; 85.3 µM (inactive) with UO-31; 58.5 µM (inactive) in the assay with NCI-H23; > 100 µM (inactive) in the assay with IGROV-1. Also, the GI50 with TK-10 was > 100 µM (inactive).
Regarding `COP(=O)(OC)C(C)(C)NC(=O)NC(F)(F)F`, the GI50 in the assay with KM12, in the assay with OVCAR-3, in the assay on HL-60, in the assay with HCC 2998, with RPMI-8226 and in the assay on Malme-3M was > 100 µM (inactive) each time. Besides, the GI50 in the assay on SR, in the assay with CCRF-CEM, with A549, with SK-MEL-2, in the assay with U-251 and with ACHN was > 100 µM (inactive) each time. Also, the GI50 in the assay on UO-31, with NCI-H23, in the assay with IGROV-1 and in the assay on TK-10 was > 100 µM (inactive) throughout.
For `[N-]=[N+]=C(C(=O)C(=[N+]=[N-])C(=O)c1ccccc1)C(=O)c1ccccc1`, the GI50 in the assay with NCI-H522 was > 100 µM (inactive); with KM12, 44.2 µM (inactive); with OVCAR-3 it was > 100 µM (inactive); with HL-60, > 100 µM (inactive); in the assay with HCC 2998 it was > 100 µM (inactive); in the assay with RPMI-8226, > 100 µM (inactive). Also, the GI50 was > 100 µM (inactive) with Malme-3M; > 100 µM (inactive) with A549; > 100 µM (inactive) in the assay on SK-MEL-2; > 100 µM (inactive) in the assay on ACHN; 65.5 µM (inactive) in the assay on UO-31; > 100 µM (inactive) with NCI-H23. Moreover, the GI50 in the assay on IGROV-1 and with TK-10 was > 100 µM (inactive) in each case.
`C#CC(O)/C=C/C(O)CCCC(O)CC#CC(O)C#CC(O)CCCC(O)/C=C/CCCC(=O)CCCCCCCCCCCCCCCC(O)C(O)C#CC(=O)O` (configuration not stated): the GI50 with NCI-H522 is 8.41 µM (inactive); with KM12, > 50 µM (inactive); with HL-60 it was 13.2 µM (inactive); in the assay on HCC 2998 it was > 50 µM (inactive); in the assay with RPMI-8226, > 50 µM (inactive); in the assay with Malme-3M, > 50 µM (inactive). Also, the GI50 is 19.3 µM (inactive) in the assay on SR; 14.1 µM (inactive) in the assay with CCRF-CEM; > 50 µM (inactive) in the assay on A549; > 50 µM (inactive) in the assay on SK-MEL-2; > 50 µM (inactive) in the assay on U-251; > 50 µM (inactive) in the assay on ACHN. The GI50 was 10.8 µM (inactive) in the assay with UO-31, > 50 µM (inactive) with NCI-H23, 9.79 µM (inactive) in the assay with IGROV-1 and > 50 µM (inactive) with TK-10.
Regarding `CC(=O)NC1C(OCc2ccccc2)OC(CO)C(O)C1OCC(=O)NC(C)C(=O)NC(CCC(=O)OCCNC(=O)c1cccc2cc3ccccc3nc12)C(N)=O` (configuration not stated), the GI50 in the assay with NCI-H522 was 16.8 µM (inactive); in the assay with KM12, 21.9 µM (inactive); with OVCAR-3 it was 20.5 µM (inactive); in the assay on HL-60 it was 22.2 µM (inactive); in the assay with HCC 2998, 18.4 µM (inactive); in the assay with RPMI-8226, 1.33 µM (inactive). The GI50 was 15.6 µM (inactive) in the assay with Malme-3M; 8.22 µM (inactive) in the assay on SR; 6.11 µM (inactive) in the assay with A549; 26.4 µM (inactive) in the assay on SK-MEL-2; 18.4 µM (inactive) with U-251; 12.3 µM (inactive) in the assay with ACHN. Moreover, the GI50 in the assay on UO-31 is 14.5 µM (inactive); with NCI-H23, 20.7 µM (inactive); in the assay with IGROV-1, 17.8 µM (inactive); in the assay with TK-10, 16.1 µM (inactive).
With `N=C(N)N/N=C/c1c(-c2ccccc2)nc2ccn3c(/C=N/N=C(N)N)c(-c4ccccc4)nc3n12`, the GI50 is 21.3 µM (inactive) in the assay on NCI-H522; 26.9 µM (inactive) in the assay with KM12; 68.5 µM (inactive) in the assay with OVCAR-3; 72.6 µM (inactive) in the assay with HL-60; 46.8 µM (inactive) in the assay with A498; > 100 µM (inactive) in the assay on RPMI-8226. Also, the GI50 was 26.2 µM (inactive) in the assay on Malme-3M; > 100 µM (inactive) in the assay with CCRF-CEM; 51.2 µM (inactive) in the assay on A549; > 100 µM (inactive) in the assay with SK-MEL-2; 58.5 µM (inactive) in the assay on U-251; 21.8 µM (inactive) with ACHN. Also, the GI50 in the assay on UO-31 was 46.5 µM (inactive); in the assay with NCI-H23 it was > 100 µM (inactive); with IGROV-1, 2.11 µM (inactive); in the assay on TK-10, 59 µM (inactive).
With `NC(=O)NCCCC(NC(=O)OCCCCCn1ccc(=O)[nH]c1=O)C(=O)O` (configuration not stated), the GI50 with KM12, with OVCAR-3, in the assay with HL-60, in the assay on HCC 2998, in the assay with RPMI-8226 and in the assay on SR was > 100 µM (inactive) each time. Moreover, the GI50 in the assay on CCRF-CEM, with A549, with SK-MEL-2, in the assay with U-251, in the assay on ACHN and in the assay with UO-31 was > 100 µM (inactive) throughout. Besides, the results for the GI50 in the assay on NCI-H23, in the assay on IGROV-1 and in the assay on TK-10 were > 100 µM (inactive), 23.1 µM (inactive) and > 100 µM (inactive), respectively.
For the compound `COc1ccc2c(c1)N=C1CSC(c3cc([N+](=O)[O-])ccc3Cl)N1C2` (configuration not stated), the GI50 with NCI-H522 was 21.5 µM (inactive); in the assay with KM12 it was 19 µM (inactive); with HL-60 it was 22.5 µM (inactive); in the assay on HCC 2998, 16.6 µM (inactive); with RPMI-8226, 17.4 µM (inactive); in the assay with Malme-3M it was 23.2 µM (inactive). The GI50 in the assay on SR is 26.5 µM (inactive); in the assay on A549, 30.9 µM (inactive); in the assay on SK-MEL-2, 18.2 µM (inactive); in the assay with U-251, 25.6 µM (inactive); in the assay on ACHN it was 20 µM (inactive); in the assay with UO-31 it was 19.6 µM (inactive). Further, the GI50 in the assay on NCI-H23 was 22.2 µM (inactive); in the assay with IGROV-1, 34.5 µM (inactive); in the assay on TK-10 it was 21.4 µM (inactive).
In the case of `Cc1ccc(/C=C2\CN(C)CC3C(c4ccc(C)cc4)=C(C#N)C(=O)NC23)cc1` (configuration not stated), the GI50 in the assay with NCI-H522, in the assay on KM12, in the assay with OVCAR-3, in the assay with A498, in the assay on HCC 2998 and with RPMI-8226 was > 50 µM (inactive) throughout. The GI50 in the assay on Malme-3M, with CCRF-CEM, with A549, with SK-MEL-2, in the assay on U-251 and in the assay on ACHN was > 50 µM (inactive) throughout. The GI50 in the assay with NCI-H23, in the assay on IGROV-1 and with TK-10 was > 50 µM (inactive) throughout.
In the case of `COc1c(C)c(C/C=C(\C)CCCCO)c(OC)c(OC)c1OC`, the GI50 is > 100 µM (inactive) in the assay on NCI-H522; 19.1 µM (inactive) in the assay with KM12; > 100 µM (inactive) with OVCAR-3; 10.3 µM (inactive) with RPMI-8226; 95.7 µM (inactive) with SR; 45.6 µM (inactive) with CCRF-CEM. In addition, the GI50 was 23.7 µM (inactive) in the assay on A549; > 100 µM (inactive) in the assay with SK-MEL-2; > 100 µM (inactive) in the assay with U-251; > 100 µM (inactive) in the assay with ACHN; > 100 µM (inactive) in the assay with UO-31; > 100 µM (inactive) with NCI-H23. Moreover, the GI50 with IGROV-1 is 45.2 µM (inactive); in the assay with TK-10, > 100 µM (inactive).
Consider `CC(=O)OCC12CN(C#N)C3C4COC(CC41)C1(C(=O)N(C)c4ccccc41)C32` (configuration not stated), for which the GI50 with NCI-H522 is 12.1 µM (inactive); in the assay on KM12, 36.5 µM (inactive); in the assay on OVCAR-3, 3.58 µM (inactive); in the assay on HL-60 it was 11.2 µM (inactive); in the assay with HCC 2998 it was 28.2 µM (inactive); in the assay on RPMI-8226, 9.73 µM (inactive). The GI50 was 21 µM (inactive) in the assay on Malme-3M; 14.6 µM (inactive) with SR; 11.8 µM (inactive) in the assay on CCRF-CEM; 28.4 µM (inactive) in the assay with A549; 24.9 µM (inactive) in the assay with SK-MEL-2; 56.1 µM (inactive) in the assay on U-251. Moreover, the GI50 was 14.3 µM (inactive) in the assay with ACHN; 13.3 µM (inactive) in the assay with UO-31; 15.6 µM (inactive) in the assay on NCI-H23; 24 µM (inactive) in the assay on IGROV-1; 20.4 µM (inactive) with TK-10.
Turning to `Cc1n[nH]c(=O)n1/N=C/c1ccco1`, the GI50 in the assay with KM12, in the assay with OVCAR-3, with A498, in the assay with HCC 2998, in the assay with RPMI-8226 and in the assay on Malme-3M was > 100 µM (inactive) in each case. The GI50 in the assay with CCRF-CEM, in the assay with A549, in the assay on SK-MEL-2, in the assay with U-251, in the assay with ACHN and with UO-31 was > 100 µM (inactive) in each case. Besides, the GI50 with NCI-H23 is > 100 µM (inactive).
